Test results published in PMC11201660 (Biomolecules, 2024).

Key:
human BChE = human BChE (Homo sapiens, UniProt P06276); assay: biochemical; format: biochemical
[1] = MTS cytotoxicity assay, 24-h exposure of liver cell line; conditions: human, HepG2 cells, IC50 HepG2 (cytotoxicity), tested 3 to 400 μM
human AChE = target: T1, human AChE (Homo sapiens, UniProt P22303); assay: biochemical; format: biochemical
T1 construct: gift from Dr. Zoran Radić, Skaggs School of Pharmacy and Pharmaceutical Sciences, UCSD

HepG2 = assay: MTS cytotoxicity assay, 24-h exposure of liver cell line; conditions: read-out: IC50 HepG2 (cytotoxicity), tested 3 to 400 μM

T1 sequence (P22303 32-614): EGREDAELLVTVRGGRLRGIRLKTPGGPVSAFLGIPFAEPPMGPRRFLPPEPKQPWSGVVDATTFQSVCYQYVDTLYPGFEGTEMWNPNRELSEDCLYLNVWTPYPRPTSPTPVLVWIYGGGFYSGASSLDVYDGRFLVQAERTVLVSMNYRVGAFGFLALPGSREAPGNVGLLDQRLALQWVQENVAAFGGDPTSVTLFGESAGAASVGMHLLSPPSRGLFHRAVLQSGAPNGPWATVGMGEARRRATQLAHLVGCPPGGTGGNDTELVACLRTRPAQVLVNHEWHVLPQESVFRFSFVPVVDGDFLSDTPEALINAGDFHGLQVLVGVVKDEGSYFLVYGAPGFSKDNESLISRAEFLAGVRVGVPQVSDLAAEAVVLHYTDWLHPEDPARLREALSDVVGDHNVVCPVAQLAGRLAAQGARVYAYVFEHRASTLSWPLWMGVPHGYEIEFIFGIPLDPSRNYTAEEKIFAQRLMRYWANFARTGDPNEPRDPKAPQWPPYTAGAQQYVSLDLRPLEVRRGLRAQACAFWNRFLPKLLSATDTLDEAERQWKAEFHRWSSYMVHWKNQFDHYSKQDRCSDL
Chain of human BChE (P06276 29-602): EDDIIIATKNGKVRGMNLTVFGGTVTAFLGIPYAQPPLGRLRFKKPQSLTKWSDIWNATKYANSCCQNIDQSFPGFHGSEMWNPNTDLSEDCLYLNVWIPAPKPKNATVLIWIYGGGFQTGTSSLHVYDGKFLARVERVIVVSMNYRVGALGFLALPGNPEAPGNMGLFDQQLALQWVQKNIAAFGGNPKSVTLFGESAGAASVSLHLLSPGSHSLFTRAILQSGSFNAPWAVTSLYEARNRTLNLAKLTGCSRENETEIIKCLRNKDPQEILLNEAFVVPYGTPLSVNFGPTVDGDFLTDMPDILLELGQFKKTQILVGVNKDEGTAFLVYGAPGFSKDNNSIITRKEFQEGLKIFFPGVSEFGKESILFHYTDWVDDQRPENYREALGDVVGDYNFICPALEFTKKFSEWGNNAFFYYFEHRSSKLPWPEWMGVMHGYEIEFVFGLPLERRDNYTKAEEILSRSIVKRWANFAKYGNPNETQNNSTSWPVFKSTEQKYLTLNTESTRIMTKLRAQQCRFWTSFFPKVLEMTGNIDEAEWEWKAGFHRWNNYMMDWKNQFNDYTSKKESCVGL

`Cc1ccc(/C=C\c2ccsc2/C=N\O)cc1` [cis,anti-18, (Z)-3-((Z)-4-methylstyryl)thiophene-2-carbaldehyde oxime] gave a Ki (human BChE) of 760 ± 122 µM and an IC50 at 24 h [1] of over 400 µM.

Compound `N#Cc1ccc(/C=C\c2ccsc2/C=N\O)cc1` [cis,anti-21, 4-((Z)-2-(2-((Z)-(hydroxyimino)methyl)thiophen-3-yl)vinyl)benzonitrile] has a Ki (human AChE) of 187 ± 54 µM, a Ki (human BChE) of 53 ± 10 µM and an IC50 at 24 h [1] of 182 ± 13 µM.

For `N#Cc1ccccc1/C=C\c1ccc(/C=N/O)s1` [cis,syn-5, 2-((Z)-2-(5-((E)-(hydroxyimino)methyl)thiophen-2-yl)vinyl)benzonitrile], the Ki (human AChE) was 112 ± 21 µM, the Ki (human BChE) was 17 ± 2 µM and the IC50 at 24 h [1] was at least 400 µM.

Work on `O/N=C/c1ccc(/C=C\c2ccc(Cl)cc2)o1` [cis,syn-12, (E)-5-((Z)-4-chlorostyryl)furan-2-carbaldehyde oxime] yielded a Ki (human AChE) of 68 ± 37 µM, a Ki (human BChE) of 147 ± 37 µM and an IC50 at 24 h [1] of 226 ± 10 µM.

Compound `Cc1ccc(/C=C\c2ccoc2/C=N/O)cc1` [cis,syn-14, (E)-3-((Z)-4-methylstyryl)furan-2-carbaldehyde oxime] has a Ki (human AChE) of 627 ± 245 µM, a Ki (human BChE) of 93 ± 30 µM and an IC50 at 24 h [1] of 182 ± 32 µM.

`O/N=C/c1occc1/C=C\c1ccc(Cl)cc1` [cis,syn-16, (E)-3-((Z)-4-chlorostyryl)furan-2-carbaldehyde oxime] showed a Ki (human BChE) of 119 ± 44 µM, an IC50 (HepG2) of 65 ± 13 µM and an IC50 at 24 h [1] of at most 100 µM.

`N#Cc1ccc(/C=C\c2ccoc2/C=N/O)cc1` [cis,syn-17, 4-((Z)-2-(2-((E)-(hydroxyimino)methyl)furan-3-yl)vinyl)benzonitrile] gave a Ki (human AChE) of 544 ± 105 µM, an IC50 (HepG2) of 120 ± 6 µM and an IC50 at 24 h [1] of at most 100 µM.

Compound `Cc1ccc(/C=C\c2ccsc2/C=N/O)cc1` [cis,syn-18, (E)-3-((Z)-4-methylstyryl)thiophene-2-carbaldehyde oxime] has a Ki (human BChE) of 86 ± 32 µM and an IC50 at 24 h [1] of 269 ± 38 µM.

With `COc1ccc(/C=C\c2csc(/C=N/O)c2)cc1` [cis,syn-19′, (E)-4-((Z)-4-methoxystyryl)thiophene-2-carbaldehyde oxime] the “inhibition of human AChE (in words)” value (human AChE) was “poor inhibitors”, the “inhibition of human BChE (in words)” value (human BChE) was “poor inhibitors” and the IC50 at 24 h [1] was over 400 µM.

In the case of `N#Cc1ccc(/C=C\c2ccsc2/C=N/O)cc1` [cis,syn-21, 4-((Z)-2-(2-((E)-(hydroxyimino)methyl)thiophen-3-yl)vinyl)benzonitrile], the Ki (human AChE) is reported as 171 ± 68 µM, the Ki (human BChE) is reported as 59 ± 8 µM and the IC50 (HepG2) is reported as 118 ± 46 µM. It also gave an IC50 at 24 h [1] of at most 100 µM.

With `ON=Cc1cn(Cc2ccc(F)cc2)nn1` [compound 1, 1-(4-fluorobenzyl)-1H-1,2,3-triazole-4-carbaldehyde oxime] the Ki (human AChE) was 271 ± 29 µM, the Ki (human BChE) was 503 ± 32 µM and the IC50 at 24 h [1] was over 400 µM.

In the case of `ON=Cc1cn(Cc2ccc(Cl)cc2)nn1` [compound 2, 1-(4-chlorobenzyl)-1H-1,2,3-triazole-4-carbaldehyde oxime], the Ki (human AChE) is reported as 267 ± 92 µM, the Ki (human BChE) is reported as 24 ± 2.9 µM and the “inhibition selectivity (AChE vs BChE)” value (human BChE) is reported as “selective BChE inhibitors”. For the same compound, the IC50 at 24 h [1] was over 400 µM.

In the case of `O=[N+]([O-])c1ccc(-n2cc(C=NO)nn2)cc1` [compound 3, 1-(4-nitrophenyl)-1H-1,2,3-triazole-4-carbaldehyde oxime], the Ki (human AChE) is reported as 280 ± 30 µM, the Ki (human BChE) is reported as 303 ± 66 µM and the IC50 at 24 h [1] is reported as over 400 µM.

With `O/N=C\c1ccc(/C=C/c2ccccc2O)s1` [trans,anti-4, (Z)-5-((E)-2-hydroxystyryl)thiophene-2-carbaldehyde oxime] the Ki (human AChE) was 258 ± 90 µM, the Ki (human BChE) was 6.5 ± 0.5 µM and the IC50 at 24 h [1] was 191 ± 21 µM.

Work on `O/N=C\c1ccc(/C=C/c2ccco2)o1` [trans,anti-6, (Z)-5-((E)-2-(furan-2-yl)vinyl)furan-2-carbaldehyde oxime] yielded a Ki (human BChE) of 123 ± 23 µM and an IC50 at 24 h [1] of at least 400 µM.

For `Cc1ccc(/C=C/c2ccc(/C=N\O)o2)cc1` [trans,anti-10, (Z)-5-((E)-4-methylstyryl)furan-2-carbaldehyde oxime], the Ki (human AChE) was 180 ± 40 µM and the IC50 at 24 h [1] was over 400 µM.

In the case of `COc1ccc(/C=C/c2ccoc2/C=N\O)cc1` [trans,anti-15, (Z)-3-((E)-4-methoxystyryl)furan-2-carbaldehyde oxime], the “inhibition of human AChE (in words)” value (human AChE) is reported as “poor inhibitors”, the “inhibition of human BChE (in words)” value (human BChE) is reported as “poor inhibitors” and the IC50 at 24 h [1] is reported as over 400 µM.

In the case of `Cc1ccccc1/C=C/c1oc2ccc3ccccc3c2c1/C=N/O` [trans,syn-9, (E)-2-((E)-2-methylstyryl)naphtho[2,1-b]furan-1-carbaldehyde oxime], the Ki (human AChE) is reported as 172 ± 29 µM, the Ki (human BChE) is reported as 303 ± 65 µM and the IC50 at 24 h [1] is reported as over 400 µM.

`Cc1ccc(/C=C/c2ccc(/C=N/O)o2)cc1` [trans,syn-10, (E)-5-((E)-4-methylstyryl)furan-2-carbaldehyde oxime] gave a Ki (human AChE) of 111 ± 45 µM, a Ki (human BChE) of 38 ± 9.8 µM and an IC50 (HepG2) of 105 ± 4 µM. It also gave an IC50 at 24 h [1] of at most 100 µM.

For `Cc1ccc(/C=C/c2ccoc2/C=N/O)cc1` [trans,syn-14, (E)-3-((E)-4-methylstyryl)furan-2-carbaldehyde oxime], the Ki (human BChE) was 122 ± 47 µM and the IC50 at 24 h [1] was over 400 µM.

For `O/N=C/c1occc1/C=C/c1ccc(Cl)cc1` [trans,syn-16, (E)-3-((E)-4-chlorostyryl)furan-2-carbaldehyde oxime], the Ki (human AChE) was 217 ± 160 µM and the IC50 at 24 h [1] was over 400 µM.

In the case of `N#Cc1ccc(/C=C/c2ccoc2/C=N/O)cc1` [trans,syn-17, 4-((E)-2-(2-((E)-(hydroxyimino)methyl)furan-3-yl)vinyl)benzonitrile], the Ki (human AChE) is reported as 66 ± 24 µM, the “inhibition selectivity (AChE vs BChE)” value (human BChE) is reported as “selective AChE inhibitors” and the IC50 at 24 h [1] is reported as over 400 µM.

With `Cc1ccc(/C=C/c2ccsc2/C=N/O)cc1` [trans,syn-18, (E)-3-((E)-4-methylstyryl)thiophene-2-carbaldehyde oxime] the Ki (human AChE) was 59 ± 39 µM, the “inhibition selectivity (AChE vs BChE)” value (human BChE) was “selective AChE inhibitors” and the IC50 at 24 h [1] was over 400 µM.

In the case of `CCCn1cc(C=Cc2ccc(C=NO)s2)nn1` [trans-7], the Ki (human AChE) is reported as 147 ± 43 µM, the Ki (human BChE) is reported as 49 ± 11 µM and the IC50 at 24 h [1] is reported as over 400 µM.

`O=[N+]([O-])c1ccc(-n2cc(C=Cc3ccc(C=NO)s3)nn2)cc1` [trans-8, 5-(2-(1-(4-nitrophenyl)-1H-1,2,3-triazol-4-yl)vinyl)thiophene-2-carbaldehyde oxime] showed a Ki (human AChE) of 199 ± 38 µM, a Ki (human BChE) of 143 ± 22 µM and an IC50 at 24 h [1] of over 400 µM.
